{"source": "ChEMBL document CHEMBL5329166", "about": "“Discovery of imeglimin-inspired novel 1,3,5-triazine derivatives as antidiabetic agents in streptozotocin-induced diabetes in Wistar rats via inhibition of DPP-4” (RSC Med Chem, 2023)", "key": {"Dipeptidyl peptidase 9": {"biological_target": "Dipeptidyl peptidase 9 (Homo sapiens, UniProt Q86TI2)", "sequence (Q86TI2 whole entry, the tested form may be a part)": "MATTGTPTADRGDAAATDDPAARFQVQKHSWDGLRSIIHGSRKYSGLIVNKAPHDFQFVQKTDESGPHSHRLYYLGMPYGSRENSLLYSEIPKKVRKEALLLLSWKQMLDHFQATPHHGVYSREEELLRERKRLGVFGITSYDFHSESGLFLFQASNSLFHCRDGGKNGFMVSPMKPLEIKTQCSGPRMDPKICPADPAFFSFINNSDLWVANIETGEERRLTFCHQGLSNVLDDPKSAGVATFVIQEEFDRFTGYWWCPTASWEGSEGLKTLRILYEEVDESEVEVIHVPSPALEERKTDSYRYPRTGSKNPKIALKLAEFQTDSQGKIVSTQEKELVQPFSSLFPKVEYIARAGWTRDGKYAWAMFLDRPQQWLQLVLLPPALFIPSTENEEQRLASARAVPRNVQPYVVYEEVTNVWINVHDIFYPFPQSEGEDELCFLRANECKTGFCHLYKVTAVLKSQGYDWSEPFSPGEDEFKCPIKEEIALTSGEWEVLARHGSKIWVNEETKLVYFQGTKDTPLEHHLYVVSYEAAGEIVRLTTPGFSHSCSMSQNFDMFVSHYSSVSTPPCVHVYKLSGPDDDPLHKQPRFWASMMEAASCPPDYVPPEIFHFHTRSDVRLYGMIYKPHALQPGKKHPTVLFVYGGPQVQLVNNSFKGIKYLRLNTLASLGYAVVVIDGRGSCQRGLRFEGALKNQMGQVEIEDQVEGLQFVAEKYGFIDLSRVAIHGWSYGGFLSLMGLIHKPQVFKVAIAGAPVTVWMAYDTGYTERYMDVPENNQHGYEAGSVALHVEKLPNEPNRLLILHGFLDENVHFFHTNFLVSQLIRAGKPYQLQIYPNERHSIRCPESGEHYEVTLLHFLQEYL", "test": "Inhibition of N-terminal GST-tagged human recombinant DPP-9 short form (1 to 863 residues) expressed in Sf9 cells using Ala-Pro-AMC dipeptide as substrate by fluorescence based assay"}, "[1]": {"test": "Antioxidant activity assessed as DPPH scavenging activity incubated for 30 mins by absorbance based assay", "type": "functional", "settings": "dose 25-100 µg/ml"}, "[2]": {"test": "Antioxidant activity assessed as DPPH scavenging activity at 91.26 ug/ml incubated for 30 mins by absorbance based assay", "type": "functional", "settings": "dose 91.26 µg/ml"}, "[3]": {"test": "Antioxidant activity assessed as H2O2 scavenging activity incubated for 10 mins by absorbance based assay", "type": "functional", "settings": "dose 25-100 µg/ml"}, "[4]": {"test": "Acute toxicity in rat assessed as change in animal skin and fur at 2000 mg/kg, po measured after 30 mins to 4 hrs", "type": "organism-based", "settings": "in vivo, time 0.5-4 hrs"}, "[5]": {"test": "Acute toxicity in rat assessed as change in sleep patterns at 2000 mg/kg, po measured after 30 mins to 4 hrs", "type": "organism-based", "settings": "in vivo, time 0.5-4 hrs"}, "[6]": {"test": "Acute toxicity in rat assessed as change in animal skin at 300 to 1000 mg/kg, po measured after 6 hrs", "type": "organism-based", "settings": "in vivo, dose 300-1000 mg/kg"}, "[7]": {"test": "Acute toxicity in rat assessed as change in animal fur at 300 to 1000 mg/kg, po measured after 6 hrs", "type": "organism-based", "settings": "in vivo, dose 300-1000 mg/kg"}, "[8]": {"test": "Acute toxicity in rat assessed as change in animal eyes at 300 to 1000 mg/kg, po measured after 6 hrs", "type": "organism-based", "settings": "in vivo, dose 300-1000 mg/kg"}, "[9]": {"test": "Acute toxicity in rat assessed as sleep and sluggish effect at 300 to 1000 mg/kg, po measured after 6 hrs", "type": "organism-based", "settings": "in vivo, dose 300-1000 mg/kg"}, "[10]": {"test": "Acute toxicity in rat assessed as behavioural alterations at 300 to 1000 mg/kg, po measured after 6 hrs", "type": "organism-based", "settings": "in vivo, dose 300-1000 mg/kg"}, "Rattus norvegicus [11]": {"tested_on": "Rattus norvegicus", "test": "Antidiabetic activity in high fat diet/STZ induced diabetic Wistar rat model assessed as increase in fasting serum insulin at 3 to 30 mg/kg, IG pretreated with STZ for 21 days followed by compound treatment once daily for 21 days by chemiluminescence immunoassay", "type": "functional, organism-based", "settings": "dose 3-30 mg/kg, time 21.0 day"}, "Rattus norvegicus [12]": {"tested_on": "Rattus norvegicus", "test": "Antidiabetic activity in high fat diet/STZ induced diabetic Wistar rat model assessed as reduction in triglyceride level at 3 to 30 mg/kg, IG pretreated with STZ for 21 days followed by compound treatment once daily for 21 days by spectrophotometric analysis", "type": "functional, organism-based", "settings": "dose 3-30 mg/kg, time 21.0 day"}, "Rattus norvegicus [13]": {"tested_on": "Rattus norvegicus", "test": "Antidiabetic activity in high fat diet/STZ induced diabetic Wistar rat model assessed as reduction in LDL level at 3 to 30 mg/kg, IG pretreated with STZ for 21 days followed by compound treatment once daily for 21 days by spectrophotometric analysis", "type": "functional, organism-based", "settings": "dose 3-30 mg/kg, time 21.0 day"}, "Rattus norvegicus [14]": {"tested_on": "Rattus norvegicus", "test": "Antidiabetic activity in high fat diet/STZ induced diabetic Wistar rat model assessed as reduction in VLDL level at 3 to 30 mg/kg, IG pretreated with STZ for 21 days followed by compound treatment once daily for 21 days by spectrophotometric analysis", "type": "functional, organism-based", "settings": "dose 3-30 mg/kg, time 21.0 day"}, "Rattus norvegicus [15]": {"tested_on": "Rattus norvegicus", "test": "Antidiabetic activity in high fat diet/STZ induced diabetic Wistar rat model assessed as increase in HDL level at 3 to 30 mg/kg, IG pretreated with STZ for 21 days followed by compound treatment once daily for 21 days by spectrophotometric analysis", "type": "functional, organism-based", "settings": "dose 3-30 mg/kg, time 21.0 day"}, "Rattus norvegicus [16]": {"tested_on": "Rattus norvegicus", "test": "Antioxidant activity in IG dosed high fat diet/STZ induced diabetic Wistar rat model assessed as reversal of CAT reduction in kidney pretreated with STZ for 21 days followed by compound treatment once daily for 21 days by spectrophotometric analysis", "type": "functional, organism-based", "settings": "dose 3-30 mg/kg, time 21.0 day"}, "Rattus norvegicus [17]": {"tested_on": "Rattus norvegicus", "test": "Antioxidant activity in IG dosed high fat diet/STZ induced diabetic Wistar rat model assessed as reversal of CAT reduction in liver pretreated with STZ for 21 days followed by compound treatment once daily for 21 days by spectrophotometric analysis", "type": "functional, organism-based", "settings": "dose 3-30 mg/kg, time 21.0 day"}, "Rattus norvegicus [18]": {"tested_on": "Rattus norvegicus", "test": "Antioxidant activity in IG dosed high fat diet/STZ induced diabetic Wistar rat model assessed as reversal of GSH reduction in kidney pretreated with STZ for 21 days followed by compound treatment once daily for 21 days by spectrophotometric analysis", "type": "functional, organism-based", "settings": "dose 3-30 mg/kg, time 21.0 day"}, "Rattus norvegicus [19]": {"tested_on": "Rattus norvegicus", "test": "Antioxidant activity in high fat diet/STZ induced diabetic Wistar rat model assessed as recovery of pancreatic epithelial cell damage and acini architecture at 10 mg/kg, IG pretreated with STZ for 21 days followed by compound treatment once daily for 21 days by H and E staining based microscopic analysis", "type": "functional, organism-based", "settings": "time 21.0 day"}, "Rattus norvegicus [20]": {"tested_on": "Rattus norvegicus", "test": "Antioxidant activity in high fat diet/STZ induced diabetic Wistar rat model assessed as repair of pancreatic epithelial cells with normal islets at 30 mg/kg, IG pretreated with STZ for 21 days followed by compound treatment once daily for 21 days by H and E staining based microscopic analysis", "type": "functional, organism-based", "settings": "time 21.0 day"}, "Rattus norvegicus [21]": {"tested_on": "Rattus norvegicus", "test": "Antioxidant activity in high fat diet/STZ induced diabetic Wistar rat model assessed as repair of pancreatic epithelial cells with reduced fibrosis at 30 mg/kg, IG pretreated with STZ for 21 days followed by compound treatment once daily for 21 days by H and E staining based microscopic analysis", "type": "functional, organism-based", "settings": "time 21.0 day"}, "Rattus norvegicus [22]": {"tested_on": "Rattus norvegicus", "test": "Antioxidant activity in high fat diet/STZ induced diabetic Wistar rat model assessed as healing of hepatocyte cytoplasm at 3 to 10 mg/kg, IG pretreated with STZ for 21 days followed by compound treatment once daily for 21 days by H and E staining based microscopic analysis", "type": "functional, organism-based", "settings": "dose 3-10 mg/kg, time 21.0 day"}, "Rattus norvegicus [23]": {"tested_on": "Rattus norvegicus", "test": "Antioxidant activity in high fat diet/STZ induced diabetic Wistar rat model assessed as healing of hepatocyte central veins at 3 to 10 mg/kg, IG pretreated with STZ for 21 days followed by compound treatment once daily for 21 days by H and E staining based microscopic analysis", "type": "functional, organism-based", "settings": "dose 3-10 mg/kg, time 21.0 day"}, "Rattus norvegicus [24]": {"tested_on": "Rattus norvegicus", "test": "Antioxidant activity in high fat diet/STZ induced diabetic Wistar rat model assessed as appearance of dilated central veins in hepatocytes at 30 mg/kg, IG pretreated with STZ for 21 days followed by compound treatment once daily for 21 days by H and E staining based microscopic analysis", "type": "functional, organism-based", "settings": "time 21.0 day"}, "Rattus norvegicus [25]": {"tested_on": "Rattus norvegicus", "test": "Antioxidant activity in high fat diet/STZ induced diabetic Wistar rat model assessed as appearance of round-oval nuclei in hepatocytes at 30 mg/kg, IG pretreated with STZ for 21 days followed by compound treatment once daily for 21 days by H and E staining based microscopic analysis", "type": "functional, organism-based", "settings": "time 21.0 day"}, "Rattus norvegicus [26]": {"tested_on": "Rattus norvegicus", "test": "Antioxidant activity in high fat diet/STZ induced diabetic Wistar rat model assessed as absence of feathery hepatocyte deterioration at 30 mg/kg, IG pretreated with STZ for 21 days followed by compound treatment once daily for 21 days by H and E staining based microscopic analysis", "type": "functional, organism-based", "settings": "time 21.0 day"}, "Rattus norvegicus [27]": {"tested_on": "Rattus norvegicus", "test": "Antioxidant activity in high fat diet/STZ induced diabetic Wistar rat model assessed as reduction in mesangial cellularity and matrix at 3 mg/kg, IG pretreated with STZ for 21 days followed by compound treatment once daily for 21 days by H and E staining based microscopic analysis", "type": "functional, organism-based", "settings": "time 21.0 day"}, "Rattus norvegicus [28]": {"tested_on": "Rattus norvegicus", "test": "Antioxidant activity in high fat diet/STZ induced diabetic Wistar rat model assessed as reduction in mesangial cellularity and matrix at 10 to 30 mg/kg, IG pretreated with STZ for 21 days followed by compound treatment once daily for 21 days by H and E staining based microscopic analysis", "type": "functional, organism-based", "settings": "dose 10-30 mg/kg, time 21.0 day"}, "Rattus norvegicus [29]": {"tested_on": "Rattus norvegicus", "test": "Antioxidant activity in high fat diet/STZ induced diabetic Wistar rat model assessed as reduction in plasma cells in renal stroma at 3 to 3 to 30 mg/kg, IG pretreated with STZ for 21 days followed by compound treatment once daily for 21 days by H and E staining based microscopic analysis", "type": "functional, organism-based", "settings": "dose 3-30 mg/kg, time 21.0 day"}, "Rattus norvegicus [30]": {"tested_on": "Rattus norvegicus", "test": "Antioxidant activity in high fat diet/STZ induced diabetic Wistar rat model assessed as appearance of typical columnar cells in tubules at 30 mg/kg, IG pretreated with STZ for 21 days followed by compound treatment once daily for 21 days by H and E staining based microscopic analysis", "type": "functional, organism-based", "settings": "time 21.0 day"}}, "note": "Active and inactive are the calls of the source. The calls are words filed in the database; no cut-off is given here."}
{"compound": "Nc1nc(NC2=NC(c3ccccc3)=CC(c3cccc([N+](=O)[O-])c3)O2)nc(N2CCOCC2)n1", "note": "(stereo unspecified)", "values": [{"measurement": "IC50", "setting": "Dipeptidyl peptidase 9", "value": "> 400", "unit": "nM"}, {"measurement": "Activity", "setting": "[1]", "value": "Dose-Dependent Effect"}, {"measurement": "Activity", "setting": "[2]", "value": "Active"}, {"measurement": "Activity", "setting": "[3]", "value": "Dose-Dependent Effect"}, {"measurement": "Activity", "setting": "[4]", "value": "Non-Toxic"}, {"measurement": "Activity", "setting": "[5]", "value": "Non-Toxic"}, {"measurement": "Activity", "setting": "[6]", "value": "Non-Toxic"}, {"measurement": "Activity", "setting": "[7]", "value": "Non-Toxic"}, {"measurement": "Activity", "setting": "[8]", "value": "Non-Toxic"}, {"measurement": "Activity", "setting": "[9]", "value": "Non-Toxic"}, {"measurement": "Activity", "setting": "[10]", "value": "Non-Toxic"}, {"measurement": "Activity", "setting": "Rattus norvegicus [11]", "value": "Active"}, {"measurement": "Activity", "setting": "Rattus norvegicus [12]", "value": "Active"}, {"measurement": "Activity", "setting": "Rattus norvegicus [13]", "value": "Active"}, {"measurement": "Activity", "setting": "Rattus norvegicus [14]", "value": "Active"}, {"measurement": "Activity", "setting": "Rattus norvegicus [15]", "value": "Active"}, {"measurement": "Activity", "setting": "Rattus norvegicus [16]", "value": "Dose-Dependent Effect"}, {"measurement": "Activity", "setting": "Rattus norvegicus [17]", "value": "Dose-Dependent Effect"}, {"measurement": "Activity", "setting": "Rattus norvegicus [18]", "value": "Dose-Dependent Effect"}, {"measurement": "Activity", "setting": "Rattus norvegicus [19]", "value": "Active"}, {"measurement": "Activity", "setting": "Rattus norvegicus [20]", "value": "Active"}, {"measurement": "Activity", "setting": "Rattus norvegicus [21]", "value": "Active"}, {"measurement": "Activity", "setting": "Rattus norvegicus [22]", "value": "Active"}, {"measurement": "Activity", "setting": "Rattus norvegicus [23]", "value": "Active"}, {"measurement": "Activity", "setting": "Rattus norvegicus [24]", "value": "Active"}, {"measurement": "Activity", "setting": "Rattus norvegicus [25]", "value": "Active"}, {"measurement": "Activity", "setting": "Rattus norvegicus [26]", "value": "Active"}, {"measurement": "Activity", "setting": "Rattus norvegicus [27]", "value": "inactive"}, {"measurement": "Activity", "setting": "Rattus norvegicus [28]", "value": "Active"}, {"measurement": "Activity", "setting": "Rattus norvegicus [29]", "value": "Active"}, {"measurement": "Activity", "setting": "Rattus norvegicus [30]", "value": "Active"}]}
